# Reference: patent US6384077B1, “Highly purified EPA for treatment of schizophrenia and related disorders” (Laxdale Limited, priority 1999, dated 2002)
# Tests used:
# [1] = molecular target: human brain enzyme FACL-4 (Homo sapiens, UniProt O60488); settings: cited from earlier work
# [2] = tested on: patients who had schizophrenia; assay: randomised, placebo-controlled study of ethyl-EPA in clozapine-treated patients with schizophrenia (PANSS, MADRS); format: in vivo, human; settings: 12 weeks, patients on clozapine
# Text: Although the case reports of the effects of ethyl-EPA are convincing and in some cases dramatic, unequivocal proof of its efficacy must come from randomised, placebo-controlled trials. We therefore set up a randomised, placebo-controlled study of EPA in 34 patients who had schizophrenia according to the criteria set out in the American Psychiatric Association's Diagnostic and Statistical Manual of Mental Disorders (4th edition, DSM-IV). All of these patients were being treated with clozapine drugs but all remained seriously ill, with schizophrenic symptoms. Like many schizophrenics, some of the patients were also depressed. All were assessed at baseline and after 12 weeks using the Positive and Negative Symptom Scale for Schizophrenia (PANSS) and the Montgomery-Asberg Depression Rating Scale (MADRS). After giving informed consent, all the patients were randomised on a double blind basis to one of three groups: placebo, or 1 g or 2 g of ethyl-EPA per day in the form of 0.5 g capsules. Placebo and EPA capsules were indistinguishable from one another in appearance. All the patients improved to some degree so all the changes are percentage improvements
# tardive dyskinesia = assay: patients with neuroleptic-induced tardive dyskinesia treated with EPA; format: in vivo, human; settings: several patients
# Text: The typical neuroleptics in some patients produce a distressing condition called tardive dyskinesia. […] The patient experiences uncontrollable twitching and other movements. These can affect any part of the body but commonly affect the face where they are particularly distressing. Facial twitches and movements, including protrusions and uncontrollable movements of the tongue occur. […] Movements have become substantially less and in some patients have disappeared completely.
# phospholipase A2 = settings: cited from earlier work
# schizophrenia [3] = assay: case history: schizophrenia, ethyl-EPA added to haloperidol; format: in vivo, human; settings: person
# Text: A person had become ill with schizophrenia. They had florid hallucinations and paranoia, but also withdrew themself from most of their friendships and lived alone. […] They lived alone, ceased to communicate with most of their friends, and went around to town alone and muttering to […]. Their psychiatrist heard about ethyl-EPA and decided to try it in addition to the standard drug. After eight weeks on treatment with 4 g/day their outlook was transformed. […] They were even persuaded to go on holiday with their family where they enjoyed themself and made new friends. The EPA therefore reversed the extreme withdrawal which appeared to have been exaggerated by haloperidol.
# [4] = tested on: attention deficit hyperactivity disorder (ADHD); assay: case report: child with ADHD; format: in vivo, human; settings: before ethyl-EPA
# Text: Attention deficit hyperactivity disorder (ADHD): ADHD and closely related conditions like attention deficit disorder and conduct disorders are commonly found in children. Occasionally they may be successfully treated by behaviour modification and other psychological techniques or by careful attention to diet. However, in most cases, paradoxical treatment with one of the stimulant drugs related in their action to amphetamine is required. Methylphenidate and dextroamphetamine are the commonest used. A child with serious ADHD since infancy was driving their parents to distraction. […] The parents were concerned about the long term consequences of stimulant drugs. The child was therefore tried on two capsules of pure ethyl-EPA per day. […] The child became less tense and irritable, less hyperactive, more open to reasoned discussion and enormously less disruptive both at home and school. Even when their methylphenidate was stopped, their behaviour remained improved.
# [5] = tested on: schizophrenia, drug-induced obesity; format: in vivo, human; settings: in vivo
# Text: Obesity is another common side effect of antipsychotropic drugs. In this respect some of the newer drugs like olanzapine frequently seem to be even worse offenders than the typical neuroleptics. […] They preferred the olanzapine but it still left their withdrawn and unable to communicate normally with friends or family. To their distress it caused them to put on over 10 kg in weight. Their doctor decided to test ethyl-EPA in addition to olanzapine.
# schizophrenia [6] = assay: case history: schizophrenia, E-EPA added to clozapine; format: in vivo, human; settings: patient not responding to typical neuroleptics; clozapine up to 900 mg/day
# Text: This mechanism is thought to be responsible for their rapid effects on the so-called “positive” symptoms of schizophrenia (such as hallucinations, delusions and thought disorder). […] The D2 blocking action is also responsible for many of the adverse effects of these drugs, which include extrapyramidal movement disorders, excess prolactin secretion, and tardive dyskinesias. Examples of widely used drugs in this class include chlorpromazine, thioridazine, haloperidol, pimozide, flupenthixol and sulpiride.
# These may include blockade of one or more of the other dopamine receptors such as D1, D3 or D4, and also usually including blockade of one or more classes of serotonin receptors. […] They may also have actions at other receptors, including histamine, glutamate and acetyl choline receptors.
# The patient was treated with clozapine, eventually reaching a maximum dose of 900 mg/day.
# E-EPA in a dose of 2 g/day was then administered in addition to clozapine.
# human brain enzyme FACL-4, sequence (O60488 whole entry): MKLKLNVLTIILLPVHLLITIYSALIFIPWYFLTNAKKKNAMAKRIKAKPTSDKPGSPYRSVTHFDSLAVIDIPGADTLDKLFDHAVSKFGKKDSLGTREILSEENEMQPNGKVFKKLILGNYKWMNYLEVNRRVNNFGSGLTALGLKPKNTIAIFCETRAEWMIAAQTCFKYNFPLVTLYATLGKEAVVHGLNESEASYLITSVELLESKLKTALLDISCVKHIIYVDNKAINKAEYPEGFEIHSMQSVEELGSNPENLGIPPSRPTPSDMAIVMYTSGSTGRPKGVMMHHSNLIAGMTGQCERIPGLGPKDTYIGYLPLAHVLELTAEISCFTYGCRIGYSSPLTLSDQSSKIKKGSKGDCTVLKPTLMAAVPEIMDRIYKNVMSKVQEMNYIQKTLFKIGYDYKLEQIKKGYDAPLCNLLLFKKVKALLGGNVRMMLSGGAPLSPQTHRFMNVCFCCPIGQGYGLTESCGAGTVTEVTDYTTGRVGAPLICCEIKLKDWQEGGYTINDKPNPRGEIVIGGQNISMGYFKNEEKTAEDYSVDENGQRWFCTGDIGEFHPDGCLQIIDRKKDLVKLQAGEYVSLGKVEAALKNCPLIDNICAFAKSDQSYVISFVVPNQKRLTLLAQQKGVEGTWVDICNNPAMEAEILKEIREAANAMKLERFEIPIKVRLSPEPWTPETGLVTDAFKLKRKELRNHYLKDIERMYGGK
smiles,measurement,setting,value
"CCCCC/C=C\C/C=C\C/C=C\C/C=C\CCCC(=O)O [AA, arachidonic acid, reference compound]",FACL-4 activity for AA relative to DHA,[1]; relative to DHA,more than twice as great as for DHA
"CC/C=C\C/C=C\C/C=C\C/C=C\C/C=C\CCCC(=O)O [EPA, all cis (or all z) 5,8, 11, 14, 17-eicosapentaenoic acid]","MADRS, percentage improvement from baseline",[2]; 1 g ethyl-EPA per day,35.7%
same,"Total PANSS, percentage improvement from baseline",[2]; 1 g ethyl-EPA per day,18.8%
same,"negative PANSS, percentage improvement from baseline",[2]; 1 g ethyl-EPA per day,22.7%
same,"positive PANSS, percentage improvement from baseline",[2]; 1 g ethyl-EPA per day,20.0%
same,"MADRS, percentage improvement from baseline",[2]; 2 g ethyl-EPA per day,35.7%
same,"Total PANSS, percentage improvement from baseline",[2]; 2 g ethyl-EPA per day,17.1%
same,"negative PANSS, percentage improvement from baseline",[2]; 2 g ethyl-EPA per day,22.7%
same,"positive PANSS, percentage improvement from baseline",[2]; 2 g ethyl-EPA per day,25.0%
same,tardive dyskinesia,tardive dyskinesia,substantial relief from tardive dyskinesia
same,inhibition of phospholipase A2,phospholipase A2,known to inhibit phospholipase A2
same,affinity for FACL-4,[1],unusually high affinity
same,"FACL-4 activity for EPA, greater than for AA",[1]; relative to AA,50%
"O=C(CCCN1CCC(O)(c2ccc(Cl)cc2)CC1)c1ccc(F)cc1 [haloperidol, reference compound]","effect on hallucinations, drug alone",schizophrenia [3],stopped most of the hallucinations
"COC(=O)C(c1ccccc1)C1CCCCN1 (stereo not drawn) [methylphenidate, reference compound]",control of ADHD,[4],only partially controlled
"Cc1cc2c(s1)Nc1ccccc1N=C2N1CCN(C)CC1 [olanzapine, reference compound]",weight put on,[5],over 10 kg
"OCCOCCN1CCN(C2=Nc3ccccc3Sc3ccccc32)CC1 [quetiapine, reference compound]",clinical response to neuroleptic alone,schizophrenia [6],no substantial benefit
"Cc1nc2n(c(=O)c1CCN1CCC(c3noc4cc(F)ccc34)CC1)CCCC2 [risperidone, reference compound]",clinical response to neuroleptic alone,schizophrenia [6],no substantial benefit
